In US20050209278A1, “Piperidinyl- and piperazinyl-sulfonylmethyl hydroxamic acids and their use as protease inhibitors” (priority 2002, published 2005):
Where two headings read alike, the source gives them in different places.

Key:
MMP-2 = target: T1, MMP-2 (Homo sapiens, UniProt P08253); experiment: In vitro MMP inhibition, Ki determination (fluorogenic substrate II); type: biochemical; conditions: read-out: MMP-2 Ki
T1 construct: made in house; host or cells: MMP-2-transfected p2AHT2 cells
T1 sequence (P08253 110-660): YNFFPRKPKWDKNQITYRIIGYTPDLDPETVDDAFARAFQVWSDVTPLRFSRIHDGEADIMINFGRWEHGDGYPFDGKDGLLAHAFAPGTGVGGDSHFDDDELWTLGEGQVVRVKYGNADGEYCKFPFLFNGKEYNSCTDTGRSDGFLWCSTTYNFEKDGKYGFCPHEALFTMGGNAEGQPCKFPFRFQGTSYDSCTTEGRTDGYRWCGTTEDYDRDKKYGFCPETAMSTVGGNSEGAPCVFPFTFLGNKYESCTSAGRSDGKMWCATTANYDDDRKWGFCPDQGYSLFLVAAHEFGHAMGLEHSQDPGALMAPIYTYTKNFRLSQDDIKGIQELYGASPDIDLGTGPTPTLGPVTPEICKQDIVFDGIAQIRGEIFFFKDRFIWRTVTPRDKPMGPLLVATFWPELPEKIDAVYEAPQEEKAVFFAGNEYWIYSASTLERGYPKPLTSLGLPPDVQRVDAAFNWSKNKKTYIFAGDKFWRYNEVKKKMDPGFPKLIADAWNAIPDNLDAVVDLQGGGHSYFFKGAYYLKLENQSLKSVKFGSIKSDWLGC

MMP-1 = target: T2, MMP-1 (Homo sapiens, UniProt P03956); experiment: as above; type: biochemical; conditions: read-out: MMP-1 Ki
T2 construct: made in house; host or cells: MMP-1-transfected HT-1080 cells (spent media)
T2 sequence (P03956 100-469): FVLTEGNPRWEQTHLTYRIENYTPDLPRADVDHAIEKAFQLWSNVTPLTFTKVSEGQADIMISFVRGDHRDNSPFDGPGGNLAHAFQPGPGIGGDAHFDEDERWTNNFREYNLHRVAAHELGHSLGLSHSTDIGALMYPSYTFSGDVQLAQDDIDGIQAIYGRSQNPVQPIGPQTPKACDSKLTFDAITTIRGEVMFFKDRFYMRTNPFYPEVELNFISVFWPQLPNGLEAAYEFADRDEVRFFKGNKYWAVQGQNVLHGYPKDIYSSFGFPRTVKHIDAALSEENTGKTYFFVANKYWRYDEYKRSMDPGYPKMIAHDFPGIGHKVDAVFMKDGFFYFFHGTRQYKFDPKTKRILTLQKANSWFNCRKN

SMILES	Ki (MMP-2; value not in parenthesis) [nM]	Ki (MMP-1; value not in parenthesis) [nM]	Ki (MMP-2; value outside parentheses) [nM]	Ki (MMP-1; value outside parentheses) [nM]
CCCCOc1ccc(N2CCN(S(=O)(=O)C3(C(=O)NO)CCN(C(=O)OCC(C)(C)C)CC3)CC2)cc1 [Example 97]	6.69	> 10000		
C#CCOC(=O)N1CCC(C(=O)NO)(S(=O)(=O)N2CCN(c3ccc(OCCCC)cc3)CC2)CC1 [Example 98]	0.5	> 10000		
CCCCc1ccc(N2CCN(S(=O)(=O)C3(C(=O)NO)CCN(c4ncccn4)CC3)CC2)nc1 [Example 99]	0.17	8300		
CCCCOc1ccc(N2CCN(S(=O)(=O)C3(C(=O)NO)CCOCC3)CC2)nc1 [Example 100]	0.13	1600		
CCCCOc1ccc(N2CCN(S(=O)(=O)C3(C(=O)NO)CCN(c4ccc(Cl)c(Cl)c4)CC3)CC2)cc1 [Example 250]	29.9	> 10000		
CCCCOc1ccc(N2CCN(S(=O)(=O)C3(C(=O)NO)CCN(c4ccc(Cl)cc4)CC3)CC2)cc1 [Example 251]			22.5	> 10000
CCCCOc1ccc(N2CCN(S(=O)(=O)C3(C(=O)NO)CCN(Cc4ccco4)CC3)CC2)cc1 [Example 252]			1.38	> 10000
CCCCOc1ccc(N2CCN(S(=O)(=O)C3(C(=O)NO)CCN(c4ccc(C(F)(F)F)cn4)CC3)CC2)cc1 [Example 257]			9.64	> 10000
O=C(NO)C1(S(=O)(=O)N2CCN(c3ccc(SC(F)(F)F)cc3)CC2)CCS(=O)(=O)CC1 [Example 258]			4.06	> 10000
CCCCOc1ccc(N2CCN(S(=O)(=O)C3(C(=O)NO)CCN(c4ccccc4)CC3)CC2)cc1 [Example 264]			8.23	> 10000
CCCCOc1ccc(N2CCN(S(=O)(=O)C3(C(=O)NO)CCN(C(=O)CC(F)(F)F)CC3)CC2)cc1 [Example 265]			0.878	> 10000
CCCCOc1ccc(N2CCN(S(=O)(=O)C3(C(=O)NO)CCNCC3)CC2)cc1 [Example 276]			5.7	> 10000
CC(C)CCOc1ccc(N2CCN(S(=O)(=O)C3(C(=O)NO)CCOCC3)CC2)cc1 [Example 279]			1.11	> 10000
CCCCOc1ccc(N2CCN(S(=O)(=O)C3(C(=O)NO)CCN(C)CC3)CC2)cc1 [Example 280]			2.76	> 10000
CCCCOc1ccc(N2CCN(S(=O)(=O)C3(C(=O)NO)CCN(Cc4ccccc4)CC3)CC2)cc1F [Example 285]			1.55	> 10000
CCCCOc1ccc(N2CCN(S(=O)(=O)C3(C(=O)NO)CCNCC3)CC2)cc1F [Example 286]			5.17	> 10000
COCCN1CCC(C(=O)NO)(S(=O)(=O)N2CCN(c3ccc(Oc4ccccc4)cc3)CC2)CC1 [Example 287]			9.44	> 10000
CCCCOc1ccc(N2CCN(S(=O)(=O)C3(C(=O)NO)CCN(C(=O)CN)CC3)CC2)cc1 [Example 292]			1.74	> 10000
CCCCOc1ccc(N2CCN(S(=O)(=O)C3(C(=O)NO)CCN(c4ccc(C)cc4)CC3)CC2)cc1 [Example 295]			8.76	> 10000
CCCCOc1ccc(N2CCN(S(=O)(=O)C3(C(=O)NO)CCN(c4ccc(C)cc4)CC3)CC2)cc1F [Example 296]			6.73	> 10000
COCCOc1ccc(N2CCN(S(=O)(=O)C3(C(=O)NO)CCN(C4CC4)CC3)CC2)cc1F [Example 297]			1.36	> 10000
CCCCOc1ccc(N2CCN(S(=O)(=O)C3(C(=O)NO)CCN(CC4CC4)CC3)CC2)cc1 [Example 298]			3.27	> 10000

The remaining compounds from weak to strong by Ki (MMP-2; value outside parentheses), led by results:

Ki (MMP-2; value not in parenthesis) [nM]	Ki (MMP-1; value not in parenthesis) [nM]	Ki (MMP-2; value outside parentheses) [nM]	Ki (MMP-1; value outside parentheses) [nM]	SMILES
		0.858	> 10000	CCCCOc1ccc(N2CCN(S(=O)(=O)C3(C(=O)NO)CCN(C(=O)c4ccccc4)CC3)CC2)cc1 [Example 255]
		0.836	> 10000	CCCCOc1ccc(N2CCN(S(=O)(=O)C3(C(=O)NO)CCN(C(=O)C(C)(C)C)CC3)CC2)cc1 [Example 267]
		0.826	> 10000	CCCCOc1ccc(N2CCN(S(=O)(=O)C3(C(=O)NO)CCN(C(=O)CC)CC3)CC2)cc1 [Example 274]
		0.81	> 10000	CCCCOc1ccc(N2CCN(S(=O)(=O)C3(C(=O)NO)CCN(C(=O)CCCC)CC3)CC2)cc1 [Example 278]
		0.81	> 10000	CCCCOc1ccc(N2CCN(S(=O)(=O)C3(C(=O)NO)CCN(CCOC)CC3)CC2)c(F)c1 [Example 284]
		0.769	> 10000	CCCCOc1ccc(N2CCN(S(=O)(=O)C3(C(=O)NO)CCN(c4ccc(Cl)nn4)CC3)CC2)cc1 [Example 281]
		0.761	> 10000	CCCCOc1ccc(N2CCN(S(=O)(=O)C3(C(=O)NO)CCN(C(N)=O)CC3)CC2)cc1 [Example 253]
		0.668	7470	CCCCOc1ccc(N2CCN(S(=O)(=O)C3(C(=O)NO)CCN(C(=O)CO)CC3)CC2)cc1 [Example 271]
		0.662	> 10000	CCCCCc1ccc(N2CCN(S(=O)(=O)C3(C(=O)NO)CCN(C4CC4)CC3)CC2)cc1 [Example 272]
		0.622	> 10000	CCCCOc1ccc(N2CCN(S(=O)(=O)C3(C(=O)NO)CCN(C(=O)C(C)C)CC3)CC2)cc1 [Example 273]
		0.564	9320	CCCCOc1ccc(N2CCN(S(=O)(=O)C3(C(=O)NO)CCN(C(=O)COC)CC3)CC2)cc1 [Example 268]
		0.5	> 10000	CCCCOc1ccc(N2CCN(S(=O)(=O)C3(C(=O)NO)CCN(C(C)=O)CC3)CC2)cc1 [Example 282]
		0.486	> 10000	CCCCOc1ccc(N2CCN(S(=O)(=O)C3(C(=O)NO)CCN(Cc4cccnc4)CC3)CC2)cc1F [Example 293]
		0.468	> 10000	CCCCOc1ccc(N2CCN(S(=O)(=O)C3(C(=O)NO)CCN(C(=O)c4ccncc4)CC3)CC2)cc1 [Example 259]
		0.467	> 10000	CCCCOc1ccc(N2CCN(S(=O)(=O)C3(C(=O)NO)CCN(C(=O)C4CC4)CC3)CC2)cc1 [Example 260]
		0.436	6400	CCCCOc1ccc(N2CCN(S(=O)(=O)C3(C(=O)NO)CCN(C=O)CC3)CC2)cc1 [Example 269]
		0.422	> 10000	CCCCOc1ccc(N2CCN(S(=O)(=O)C3(C(=O)NO)CCN(C(=O)c4cccnc4)CC3)CC2)cc1 [Example 266]
		0.42	> 10000	CCCCOc1ccc(N2CCN(S(=O)(=O)C3(C(=O)NO)CCN(C(=O)c4ccccn4)CC3)CC2)cc1 [Example 277]
		0.381	> 10000	CCCCOc1ccc(N2CCN(S(=O)(=O)C3(C(=O)NO)CCN(c4ccc(C)nn4)CC3)CC2)cc1 [Example 275]
		0.37	9790	CCCCOc1ccc(N2CCN(S(=O)(=O)C3(C(=O)NO)CCN(c4ccc(O)nn4)CC3)CC2)cc1 [Example 283]
		0.309	> 10000	CCCCOc1ccc(N2CCN(S(=O)(=O)C3(C(=O)NO)CCN(C(=O)N(C)C)CC3)CC2)cc1 [Example 254]
		0.276	632	CCc1ccc(N2CCN(S(=O)(=O)C3(C(=O)NO)CCCC3)CC2)nc1 [Example 261]
		0.188	605	CCc1ccc(N2CCN(S(=O)(=O)C3(C(=O)NO)CCCCC3)CC2)nc1 [Example 263]
		0.176	> 10000	CCCCc1ccc(N2CCN(S(=O)(=O)C3(C(=O)NO)CCN(CCOC)CC3)CC2)nc1 [Example 270]
